Drawing on US8846698B2, “Pyrrolo[2,3-d]pyrimidine tropomysin-related kinase inhibitors” (Pfizer Limited, priority 2011, dated 2014), this text covers IC50 for 32 compounds.

One may read the IC50 as the point on the concentration scale where inhibition reaches its midpoint.

The target in this assay is TRKA (Homo sapiens (Human), UniProt P04629). Description: Isolated TRK enzyme assay (HTRF KinEASE-TK), TRKA. It counts as biochemical. Particulars: read-out: Trka enzyme (IC50). On the technique in general: In TR-FRET formats the signal depends on donor and acceptor labels being close together.
Sequence of TRKA (P04629 441-796): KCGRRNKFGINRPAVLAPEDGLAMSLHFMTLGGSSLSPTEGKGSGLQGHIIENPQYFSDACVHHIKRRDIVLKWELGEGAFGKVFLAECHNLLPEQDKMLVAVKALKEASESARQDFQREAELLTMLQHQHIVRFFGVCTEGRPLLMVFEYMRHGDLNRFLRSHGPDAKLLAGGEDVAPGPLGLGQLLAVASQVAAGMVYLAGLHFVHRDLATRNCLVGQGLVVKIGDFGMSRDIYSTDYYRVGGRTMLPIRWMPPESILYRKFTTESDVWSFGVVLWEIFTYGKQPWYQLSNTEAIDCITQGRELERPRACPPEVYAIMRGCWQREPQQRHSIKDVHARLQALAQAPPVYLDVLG
As to `CC(C)n1cc(C(=O)c2cncc(NC(=O)c3c[nH]nc3C3CCC3)c2)c2cncnc21` [Example 389, 3-Cyclobutyl-1H-pyrazole-4-carboxylic acid [5-(7-isopropyl-7H-pyrrolo[2,3-d]pyrimidine-5-carbonyl)-pyridin-3-yl]-amide], the IC50 is 84.3 nM.

As to `CC(C)n1cc(C(=O)c2cncc(NC(=O)c3cnco3)c2)c2cncnc21` [Example 390, Oxazole-5-carboxylic acid [5-(7-isopropyl-7H-pyrrolo[2,3-d]pyrimidine-5-carbonyl)-pyridin-3-yl]-amide], the IC50 came out at 9800 nM.

With `Cc1c[nH]c(C(=O)Nc2cncc(C(=O)c3cn(C(C)C)c4ncncc34)c2)n1` [Example 391, 4-Methyl-1H-imidazole-2-carboxylic acid [5-(7-isopropyl-7H-pyrrolo[2,3-d]pyrimidine-5-carbonyl)-pyridin-3-yl]-amide], the IC50 is 246 nM.

On to `CC(C)n1cc(C(=O)c2cncc(NC(=O)c3cc4cc[nH]c4cn3)c2)c2cncnc21` [Example 392, 1H-Pyrrolo[2,3-c]pyridine-5-carboxylic acid [5-(7-isopropyl-7H-pyrrolo[2,3-d]pyrimidine-5-carbonyl)-pyridin-3-yl]-amide], for which the IC50 was 135 nM.

Regarding `Cc1cnc(C(=O)Nc2cncc(C(=O)c3cn(C(C)C)c4ncncc34)c2)cn1` [Example 393, 5-Methyl-pyrazine-2-carboxylic acid[5-(7-isopropyl-7H-pyrrolo[2,3-d]pyrimidine-5-carbonyl)-pyridin-3-yl]-amide], the IC50 stood at 1360 nM.

Take `Cc1nn(C)cc1C(=O)Nc1cncc(C(=O)c2cn(C(C)C)c3ncncc23)c1` [Example 394, 1,3-Dimethyl-1H-pyrazole-4-carboxylic acid [5-(7-isopropyl-7H-pyrrolo[2,3-d]pyrimidine-5-carbonyl)-pyridin-3-yl]-amide]: the IC50 turned out to be 7120 nM.

Turning to `CC(C)n1cc(C(=O)c2cncc(NC(=O)c3cnc4cn[nH]c4c3)c2)c2cncnc21` [Example 395, 1H-Pyrazolo[4,3-b]pyridine-6-carboxylic acid [5-(7-isopropyl-7H-pyrrolo[2,3-d]pyrimidine-5-carbonyl)-pyridin-3-yl]-amide], the IC50 stood at 1350 nM.

For `CCc1cc(C(=O)Nc2cncc(C(=O)c3cn(C(C)C)c4ncncc34)c2)no1` [Example 396, 5-Ethyl-isoxazole-3-carboxylic acid[5-(7-isopropyl-7H-pyrrolo[2,3-d]pyrimidine-5-carbonyl)-pyridin-3-yl]-amide], the IC50 was 177 nM.

With `CC(C)n1cc(C(=O)c2cncc(NC(=O)c3ccnn3C)c2)c2cncnc21` [Example 397, 2-Methyl-2H-pyrazole-3-carboxylic acid [5-(7-isopropyl-7H-pyrrolo[2,3-d]pyrimidine-5-carbonyl)-pyridin-3-yl]-amide], the IC50 turned out to be 9800 nM.

Regarding `CC(C)n1cc(C(=O)c2cncc(NC(=O)c3cnc4ccccc4c3)c2)c2cncnc21` [Example 398, Quinoline-3-carboxylic acid [5-(7-isopropyl-7H-pyrrolo[2,3-d]pyrimidine-5-carbonyl)-pyridin-3-yl]-amide], the IC50 was 138 nM.

For the compound `CC(C)n1cc(C(=O)c2cncc(NC(=O)c3cc4cc(F)cnc4[nH]3)c2)c2cncnc21` [Example 399, 5-Fluoro-1H-pyrrolo[2,3-b]pyridine-2-carboxylic acid [5-(7-isopropyl-7H-pyrrolo[2,3-d]pyrimidine-5-carbonyl)-pyridin-3-yl]-amide], the IC50 came to 153 nM.

`Cc1cc(C(=O)Nc2cncc(C(=O)c3cn(C(C)C)c4ncncc34)c2)nn1C` [Example 400, 1,5-Dimethyl-1H-pyrazole-3-carboxylic acid [5-(7-isopropyl-7H-pyrrolo[2,3-d]pyrimidine-5-carbonyl)-pyridin-3-yl]-amide]: the IC50 was determined as 593 nM.

Regarding `CC(C)n1cc(C(=O)c2cncc(NC(=O)c3coc(C4CC4)n3)c2)c2cncnc21` [Example 401, 2-Cyclopropyl-oxazole-4-carboxylic acid [5-(7-isopropyl-7H-pyrrolo[2,3-d]pyrimidine-5-carbonyl)-pyridin-3-yl]-amide], the IC50 was 132 nM.

With `CC(C)n1cc(C(=O)c2cncc(NC(=O)c3scnc3C(F)(F)F)c2)c2cncnc21` [Example 402, 4-Trifluoromethyl-thiazole-5-carboxylic acid [5-(7-isopropyl-7H-pyrrolo[2,3-d]pyrimidine-5-carbonyl)-pyridin-3-yl]-amide], the IC50 amounted to 9800 nM.

For `CC(C)n1cc(C(=O)c2cncc(NC(=O)c3ncn4c3CCC4)c2)c2cncnc21` [Example 403, 6,7-Dihydro-5H-pyrrolo[1,2-c]imidazole-1-carboxylic acid [5-(7-isopropyl-7H-pyrrolo[2,3-d]pyrimidine-5-carbonyl)-pyridin-3-yl]-amide], the concentration for half-maximal inhibition (IC50) came out at 1220 nM.

For the compound `CC(C)n1cc(C(=O)c2cncc(NC(=O)c3cc4sccc4cn3)c2)c2cncnc21` [Example 404, Thieno[3,2-c]pyridine-6-carboxylic acid [5-(7-isopropyl-7H-pyrrolo[2,3-d]pyrimidine-5-carbonyl)-pyridin-3-yl]-amide], the half-inhibitory concentration (IC50) worked out at 118 nM.

Consider `CC(C)n1cc(C(=O)c2cncc(NC(=O)c3cn(C)nc3C(F)(F)F)c2)c2cncnc21` [Example 405, 1-Methyl-3-trifluoromethyl-1H-pyrazole-4-carboxylic acid [5-(7-isopropyl-7H-pyrrolo[2,3-d]pyrimidine-5-carbonyl)-pyridin-3-yl]-amide], for which the IC50 came out at 1630 nM.

`CC(C)n1cc(C(=O)c2cncc(NC(=O)c3ccn4cncc4c3)c2)c2cncnc21` [Example 406, Imidazo[1,5-a]pyridine-7-carboxylicacid [5-(7-isopropyl-7H-pyrrolo[2,3-d]pyrimidine-5-carbonyl)-pyridin-3-yl]-amide]: the IC50 is 2640 nM.

As to `CC(C)n1cc(C(=O)c2cncc(NC(=O)c3ccnc4[nH]ccc34)c2)c2cncnc21` [Example 407, 1H-Pyrrolo[2,3-b]pyridine-4-carboxylic acid [5-(7-isopropyl-7H-pyrrolo[2,3-d]pyrimidine-5-carbonyl)-pyridin-3-yl]-amide], the IC50 turned out to be 2600 nM.

In the case of `CCc1cc(C(=O)Nc2cncc(C(=O)c3cn(C(C)C)c4ncncc34)c2)on1` [Example 408, 3-Ethyl-isoxazole-5-carboxylic acid[5-(7-isopropyl-7H-pyrrolo[2,3-d]pyrimidine-5-carbonyl)-pyridin-3-yl]-amide], the IC50 was found to be 654 nM.

`COc1ccnc(C(=O)Nc2cncc(C(=O)c3cn(C(C)C)c4ncncc34)c2)c1` [Example 409, 4-Methoxy-pyridine-2-carboxylic acid [5-(7-isopropyl-7H-pyrrolo[2,3-d]pyrimidine-5-carbonyl)-pyridin-3-yl]-amide]: the IC50 worked out at 70.4 nM.

Turning to `CC(C)n1cc(C(=O)c2cncc(NC(=O)c3cncnc3)c2)c2cncnc21` [Example 410, Pyrimidine-5-carboxylic acid [5-(7-isopropyl-7H-pyrrolo[2,3-d]pyrimidine-5-carbonyl)-pyridin-3-yl]-amide], the IC50 came out at 9800 nM.

As to `Cc1n[nH]cc1C(=O)Nc1cncc(C(=O)c2cn(C(C)C)c3ncncc23)c1` [Example 411, 3-Methyl-1H-pyrazole-4-carboxylic acid [5-(7-isopropyl-7H-pyrrolo[2,3-d]pyrimidine-5-carbonyl)-pyridin-3-yl]-amide], the IC50 was 9800 nM.

As for `Cc1cnc2[nH]cc(C(=O)Nc3cncc(C(=O)c4cn(C(C)C)c5ncncc45)c3)c2c1` [Example 412, 5-Methyl-1H-pyrrolo[2,3-b]pyridine-3-carboxylic acid [5-(7-isopropyl-7H-pyrrolo[2,3-d]pyrimidine-5-carbonyl)-pyridin-3-yl]-amide], the IC50 was determined as 5.18 nM.

Turning to `Cc1cncnc1C(=O)Nc1cncc(C(=O)c2cn(C(C)C)c3ncncc23)c1` [Example 413, 5-Methyl-pyrimidine-4-carboxylic acid [5-(7-isopropyl-7H-pyrrolo[2,3-d]pyrimidine-5-carbonyl)-pyridin-3-yl]-amide], the IC50 amounted to 9800 nM.

Take `CC(C)n1cc(C(=O)c2cncc(NC(=O)c3cnc4ccsc4c3)c2)c2cncnc21` [Example 414, Thieno[3,2-b]pyridine-6-carboxylic acid [5-(7-isopropyl-7H-pyrrolo[2,3-d]pyrimidine-5-carbonyl)-pyridin-3-yl]-amide]: the IC50 is 158 nM.

Regarding `CC(C)n1cc(C(=O)c2cncc(NC(=O)c3cnc4ccnn4c3)c2)c2cncnc21` [Example 415, Pyrazolo[1,5-a]pyrimidine-6-carboxylic acid [5-(7-isopropyl-7H-pyrrolo[2,3-d]pyrimidine-5-carbonyl)-pyridin-3-yl]-amide], the IC50 came to 2590 nM.

With `CC(C)n1cc(C(=O)c2cncc(NC(=O)c3noc4c3CCCC4)c2)c2cncnc21` [Example 416, 4,5,6,7-Tetrahydro-1,2-benzisoxazole-3-carboxylic acid [5-(7-isopropyl-7H-pyrrolo[2,3-d]pyrimidine-5-carbonyl)-pyridin-3-yl]-amide], the 50% inhibitory concentration (IC50) is 52 nM.

Take `CC(C)n1cc(C(=O)c2cncc(NC(=O)c3ncc4ccccn34)c2)c2cncnc21` [Example 417, Imidazo[1,5-a]pyridine-3-carboxylicacid [5-(7-isopropyl-7H-pyrrolo[2,3-d]pyrimidine-5-carbonyl)-pyridin-3-yl]-amide]: the IC50 came to 71.2 nM.

As to `CC(C)n1cc(C(=O)c2cncc(NC(=O)c3ccc4cc[nH]c4n3)c2)c2cncnc21` [Example 418, 1H-Pyrrolo[2,3-b]pyridine-6-carboxylic acid [5-(7-isopropyl-7H-pyrrolo[2,3-d]pyrimidine-5-carbonyl)-pyridin-3-yl]-amide], the IC50 amounted to 40.2 nM.

On to `CC(C)n1cc(C(=O)c2cncc(NC(=O)c3n[nH]c4c3CCC4)c2)c2cncnc21` [Example 419, 1,4,5,6-Tetrahydro-cyclopentapyrazole-3-carboxylic acid [5-(7-isopropyl-7H-pyrrolo[2,3-d]pyrimidine-5-carbonyl)-pyridin-3-yl]-amide], for which the IC50 was 15.1 nM.

With `CC(C)n1cc(C(=O)c2cncc(NC(=O)c3cncnc3N)c2)c2cncnc21` [Example 420, 4-Amino-pyrimidine-5-carboxylic acid [5-(7-isopropyl-7H-pyrrolo[2,3-d]pyrimidine-5-carbonyl)-pyridin-3-yl]-amide], the IC50 was 9800 nM.
